Assay results reported in publication PMC8416020 (eLife, 2021).
“And” between values parts separate entries of the source, which are not always exact repeats. Equal entries are not always repeated. Where two headings read alike, the source gives them in different places.

T1: GHSR (Homo sapiens, UniProt Q92847)
T1 chain: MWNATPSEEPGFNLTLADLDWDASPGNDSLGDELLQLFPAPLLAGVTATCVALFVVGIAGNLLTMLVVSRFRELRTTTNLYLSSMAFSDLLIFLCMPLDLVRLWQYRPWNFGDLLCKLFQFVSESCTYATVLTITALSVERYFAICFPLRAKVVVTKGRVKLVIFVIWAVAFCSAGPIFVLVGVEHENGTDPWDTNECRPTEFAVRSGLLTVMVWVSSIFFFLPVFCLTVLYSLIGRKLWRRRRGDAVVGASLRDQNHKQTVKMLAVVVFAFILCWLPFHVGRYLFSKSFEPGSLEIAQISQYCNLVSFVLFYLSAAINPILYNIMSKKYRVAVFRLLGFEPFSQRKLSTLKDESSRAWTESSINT


Assays:
[1] = tested on: β1-adrenergic receptor; details: ref Yen et al., 2018; cited from earlier work
From the text: (§1) In addition to ligands, other components in the receptor environment allosterically impact on GPCR activation and conformational dynamics. […] Among the lipids reported to affect GPCR signaling such as cholesterol ([Casiraghi et al., 2016]; [Zocher et al., 2012]) or charged phospholipids ([Strohman et al., 2019]; [Daw ...

[2] = tested on: adenosine A2a receptor; details: ref Yen et al., 2018; cited from earlier work
From the text: as §1

[3] = tested on: neurotensin receptor 1; details: ref Yen et al., 2018; cited from earlier work
From the text: as §1

[4] = tested on: ghrelin receptor; details: ref Damian et al., 2021; cited from earlier work
From the text: as §1

[5] = tested on: GHSR labeled with 7H4MC-ethylglycine at Y232^5.58; assay: Hydration parameter H from 7H4MC fluorescence emission; format: biochemical, human; details: for H parameter: 5.58, ligand 10 µM, POPC:POPG nanodiscs, 15°C, ex 320 nm
From the text: (§2) We then investigated whether the fluorescence properties of 7H4MC-ethylglycine could report on the local hydration features of GHSR. To this end, we analyzed the 7H4MC emission profile for each of the positions considered. An excitation wavelength of 320 nm was systematically used to excite the neutral form of the fluorophore ([Amaro et al., 2015]). The emission spectra were deconvoluted into their separate components using the procedure initially described ([Amaro et al., 2015]). A hydration parameter H was then determined that corresponded to the sum of the contributions of the anionic and tautomer forms. This parameter is an indicator of the extent of hydration at the position considered, as the higher the H parameter the higher local hydration ([Amaro et al., 2015]). A difference in the H parameter inferred for the 7H4MC probe at the different positions of the apo GHSR was observed depending on the position considered (Figure 2—figure supplement 1, 2).
(§3) Figure 2. Local hydration of growth hormone secretagogue receptor (GHSR) as a function of ligands. […] All ligands were used at a 10 µM concentration. In all cases, the data represents the mean value ± SD of three experiments. Statistical analyses are provided in […]—figure supplement 2 and 4. Figure 2—source data 1. H parameter for GHSR and its mutants. Figure 2—figure supplement 1. Emission spectra of L-(7-hydroxycoumarin-4-yl) (7H4MC)-ethylglycine incorporated into isolated growth hormone secretagogue receptor (GHSR). The spectra were recorded in the absence of ligand. The labeling positions are given in a snake-like plot of GHSR ([Shiimura et al., 2020]) (A) (red: positions deleterious to GHSR function; green: positions considered in this work), and then indicated in each panel (B–F). The excitation wavelength was set to 320 nm with an emission intensity recorded between 340 and 600 nm. The gray curve represents the experimental emission spectrum (exp). The red, blue, green, and magenta spectra represent the decomposition of the experimental spectrum into its neutral (N), complexed (C), anionic (A), and tautomeric (T) components, respectively. The orange curve (fit) corresponds to sum of the individual N, C, A, and T curves. Figure 2—figure supplement 1—source data 1. 7-H4MC emission intensity of the apo GHSR mutants. [drawing 7] Figure 2—figure supplement 2. Statistical analysis of the data in Figure 2. […] Data is from Figure 2. […] Structure of the ligands used throughout this work. [drawing 9] Figure 2—figure supplement 4. Statistical analysis of the data in Figure 2. The left panels show the hydration parameter for each of the mutants in the absence or in the presence of ligands. Data are from Figure 2. The right panels show the mean difference between the apo and the ligand-loaded states for each of the mutants with multiplicity-adjusted 95% confidence intervals. [drawing 10] Figure 2—figure supplement 5. Emission spectra of L-(7-hydroxycoumarin-4-yl) (7H4MC)-ethylglycine incorporated at position 5.58 of growth hormone secretagogue receptor (GHSR) in the presence of pharmacologically distinct ligands or phosphatidylinositol-4,5-bisphosphate (PIP2). […] The excitation wavelength was set to 320 nm with an emission intensity recorded between 340 and 600 nm. The black curve represents the experimental emission spectrum (exp). The red one (fit) corresponds to sum of the individual curves after decomposition of the experimental spectrum into its neutral, complexed, anionic, and tautomeric components. Figure 2—figure supplement 5—source data 1. 7-H4MC emission intensity of the GHSR 5.58 mutant in the presence of ligands. [drawing 11] Figure 2—figure supplement 6. […]

[6] = tested on: GHSR labeled with 7H4MC-ethylglycine at F272^6.44; assay: as above; format: biochemical, human; details: for H parameter: 6.44, ligand 10 µM, POPC:POPG nanodiscs, 15°C, ex 320 nm
From the text: as §2, §3

[7] = tested on: GHSR; details: ref M'Kadmi et al., 2015; cited from earlier work
[8] = tested on: GHSR labeled with 7H4MC-ethylglycine at S315^7.45; assay: Hydration parameter H from 7H4MC fluorescence emission; format: biochemical, human; details: ligand 10 µM, POPC:POPG nanodiscs, 15°C, ex 320 nm
From the text: as §2, §3

[9] = tested on: GHSR labeled with 7H4MC-ethylglycine at V268^6.40; assay: as above; format: biochemical, human; details: 6.4, ligand 10 µM, POPC:POPG nanodiscs, 15°C, ex 320 nm
From the text: as §2, §3

[10] = tested on: GHSR labeled with 7H4MC-ethylglycine at I134^3.43; assay: as above; format: biochemical, human; details: ligand 10 µM, POPC:POPG nanodiscs, 15°C, ex 320 nm
From the text: as §2, §3

[11] = tested on: GHSR; details: ref Ferré et al., 2019; cited from earlier work
Protocol: For labeling with 7H4MC-ethylglycine, the TAG amber codon was introduced at the positions indicated in Figure 1A by site-directed mutagenesis with the pET21a expression vector encoding human GHSR fused to the α5 integrin ([Damian et al., 2012]). The UAA solution was prepared by dissolving 263 mg of 7H4MC-ethylglycine in 10 mL 200 mM KOH solution and filter-sterilizing. […] Cultures were grown at 37°C ...

[12] = molecular target: GHSR (Homo sapiens) (UniProt Q92847); assay: FRET; details: cited from earlier work
[13] = molecular target: GHSR (Homo sapiens) (UniProt Q92847); details: cited from earlier work
[14] = molecular target: GHSR (Homo sapiens) (UniProt Q92847); assay: 125I-ghrelin radioligand binding; details: cited from earlier work
[15] = molecular target: GHSR1a (Homo sapiens) (UniProt Q92847); details: cited from earlier work
[16] = tested on: 7H4MC-labeled GHSR; assay: Hydration parameter H from 7H4MC fluorescence emission, several positions together; format: biochemical, human; details: any of the positions considered; saturating ligand (10 µM)
From the text: as §2
Figure 2. Local hydration of growth hormone secretagogue receptor (GHSR) as a function of ligands. […] All ligands were used at a 10 µM concentration. […] The spectra were recorded in the absence of ligand. […] The excitation wavelength was set to 320 nm with an emission intensity recorded between 340 and 600 nm. […] The excitation wavelength was set to 320 nm with an emission intensity recorded between 340 and 600 nm. […]

[17] = tested on: isolated GHSR; details: ref Mary et al., 2012; Damian et al., 2015; cited from earlier work
From the text: We then used 7H4MC fluorescence to monitor the impact of ligand binding on the hydration pattern of GHSR.

[18] = molecular target: T1, GHSR; assay: FRET
[19] = 2.5% PIP2 in nanodiscs, 10 µM ghrelin
[20] = saturating ligand (10 µM), vs apo

Row | Molecule | pharmacological class [7] | H parameter ([8]; replicate 1) | H parameter ([8]; replicate 2) | H parameter ([8]; replicate 3) | H parameter ([9]; replicate 1) | H parameter ([9]; replicate 2) | H parameter ([9]; replicate 3) | H parameter ([5]; replicate 1) | H parameter ([5]; replicate 2) | H parameter ([5]; replicate 3) | H parameter ([10]; replicate 1) | H parameter ([10]; replicate 2) | H parameter ([10]; replicate 3) | H parameter ([6]; replicate 1) | H parameter ([6]; replicate 2) | H parameter ([6]; replicate 3) | other results
1 | phosphatidylinositol-4,5-bisphosphate [PIP2] |  |  |  |  |  |  |  |  |  |  |  |  |  |  |  |  | stabilization of the receptor:G protein complex [1]: stabilize the receptor:G protein complex; stabilization of the receptor:G protein complex [2]: stabilize the receptor:G protein complex; stabilization of the receptor:G protein complex [3]: stabilize the receptor:G protein complex; effect on ghrelin signaling [4]: allosteric regulator of ghrelin signaling; effect of adding PIP2 on the H parameter for position 5.58 [5, 19]: increased the H parameter for position 5.58; effect of adding PIP2 on the H parameter for position 6.44 [6, 19]: decreased that for position 6.44
2 | COc1ccc(Cn2c(CCc3ccccc3)nnc2[C@@H](Cc2c[nH]c3ccccc23)NC(=O)c2ccccn2)c(OC)c1 [JMV3002] | Gq-biased partial agonist | 21.56 | 20.44 | 18.97 | 66.83 | 65.42 | 67.29 | 26.59 | 27.63 | 28.26 | 67.89 | 65.22 | 66.89 | 24.24 | 22.63 | 23.15 | Gi activation and arrestin recruitment [7]: triggers neither Gi activation nor arrestin recruitment; change in the hydration parameter at position 5.58 upon binding [5, 20]: no change was observed for the probe at position 5.58; change in the hydration parameter at position 6.44 upon binding [6, 20]: decrease in the hydration parameter at position 6.44
3 | JMV2959 |  |  |  |  |  |  |  |  |  |  |  |  |  |  |  |  | pharmacological class (affinity chromatography ligands) [11]: antagonist
4 | ghrelin (from UniProt Q9UBU3) |  |  |  |  |  |  |  |  |  |  |  |  |  |  |  |  | Ki [12]: 4.6 nM; Kd [13]: 12.5 nM; Kd [14]: 4.4 nM and 2.3 nM; Kd [15]: 0.4 nM
5 | COc1ccc(Cn2c(CCc3c[nH]c4ccccc34)nnc2C(Cc2c[nH]c3ccccc23)NC(=O)c2ccccn2)c(OC)c1 (stereo not shown) [JMV3011] | neutral antagonist | 21.2 | 22.69 | 23.47 | 64.53 | 63.48 | 65.36 | 24.19 | 26.01 | 26.56 | 62.25 | 63.97 | 62.73 | 34.06 | 36.74 | 35.98 | change in the hydration parameter upon binding [16]: not accompanied by a measurable change in the hydration parameter; change in the conformation of isolated GHSR [17]: not associated with any change in the conformation of isolated GHSR
6 | GSSFLSPEHQRVQQRKESKKPPAKLQP [ghrelin] |  |  |  |  |  |  |  |  |  |  |  |  |  |  |  |  | Ki [18]: 77 nM
